Entries after “also recorded” stand apart in the source; their conditions may differ.
Tests used:
[1] = system: HUVEC cells; assay: In vitro wound healing (migration) assay, HUVEC; type: cell-based, Human; details: SC17-2 concentrations exceeding 10 μg/mL, 16 h
[2] = system: Acinetobacter baumannii (ATCC 19606), Candida auris (ATCC 10231), Pseudomonas aeruginosa (ATCC 27853) and Staphylococcus aureus (ATCC 6538); assay: Disk diffusion (paper-disc agar-diffusion) antimicrobial test; type: cell-based; details: SC17-2 10 mg/mL, 1 mL on filter paper, 24 h, 37 °C, b51 statement also rests on the MIC test
Experimental: Disk diffusion and broth microdilution tests were selected as the standard method for screening the antimicrobial activity of SC17-2 [58]. The experiments were conducted utilising the disk diffusion test, whereby the following strains were examined: Acinetobacter baumannii (ATCC 19606), Candida auris (ATCC 10231), Pseudomonas aeruginosa (ATCC 27853) and Staphylococcus aureus (ATCC 6538). The concentration of bacterial suspension was then adjusted to 1 × 10^5 CFU/mL with saline, after which it was set aside. Separate plates containing bacterial agar were prepared: MH agar was utilised for the isolation of bacterial samples, while Sartorius agar was employed for the isolation of fungal samples. The suspensions containing the aforementioned microorganisms were then spread on the designated plates at a rate of 1:1000. A sterile filter paper was used to dispense 1 mL of SC17-2 (10 mg/mL), with equal amounts of PBS and Vancomycin/Colistin serving as controls. The plates were then subjected to the appropriate temperature (24 h at 37 °C) and subsequently observed under a camera to ascertain the results.

[3] = system: HaCaT cells; assay: In vitro UVB damage repair (CCK-8); type: cell-based, Human
Experimental: HaCaT cells were inoculated in 24-well plates at 1 × 10^4 cells/well and incubated for 24 h to ensure uniformity and number of cells per well. Prior to UVB irradiation, cells were washed with phosphate buffer solution (PBS) and covered with 300 μL of PBS. The blank control group was wrapped through tinfoil to eliminate the effects caused by UVB irradiation and subsequently irradiated through […]. Immediately after irradiation, PBS was replaced with DMEM/F12 medium and 20 and 5 μg/mL of peptides SC17-2 were added, respectively, and incubated for 24 h. After that, 10 μL of CCK-8 was added to each well, and incubated for 2 h. The absorbance values of each well were measured at 450 nm.

[4] = target: EGFR (Homo sapiens, UniProt P00533); assay: Bio-Layer Interferometry (BLI); type: binding
Experimental: Prepare 20 μg/mL of EGFR protein solution (solvent 0.1 % PBS-Tween), and different concentrations of SC17-2 (5, 10, 20 μg/mL) dissolved using PBST. Biotin was added and incubated at room temperature for 30 min according to the instructions, and the corresponding probes were soaked in PBST for 10 min. The assay was carried out according to the BLI predefined procedure (Octet K2, ForteBio, USA), followed by calculations using the accompanying software, and graphpad was used for graphing.

[5] = system: Transgenic zebrafish Tg (Fli1a:eGFP); assay: Zebrafish VRI-induced vascular insufficiency model (ISV); type: in vivo; details: VRI 300 ng/mL
Experimental: Transgenic zebrafish Tg (Fli1a:eGFP) were cultured in culture tanks at 28 °C in a 14 h:10 h light/dark cycle for up to 6 months and subsequently made to produce zygotes by mating only, zebrafish larvae at 24 h post fertilisation (hpf) were induced for 3 h with a VEGFR tyrosine kinase inhibitor II (VRI) to produce a model of vascular insufficiency, after which they were washed to abort the effect of VRI was added to the same number of zebrafish of different groups with SC17-2 or equivalent amount of PBS, and images of zebrafish embryos were captured by Leica fluorescence microscopy, and the ISV index was calculated as follows: ISV index = intact blood vessels × 1 + defective blood vessels × 0.5.

[6] = Antioxidant activity (stated, no separate method); details: no separate method or value printed
[7] = system: (p-Smad2/3)/(Smad2/3); assay: Western blot p-Smad2/3 / Smad2/3 in HaCaT; type: cell-based, Human; details: SC17-2 20 μg/mL, 24 h (16 h elsewhere in the source), n = 3
Experimental: HaCaT was inoculated in 12-well plates (2 × 10^5 cells/well) and cultured for 24 h. Afterwards, HaCaT cells were treated with equal amounts of VEGF, SC17-2, and PBS for 16 h. Cells were washed with PBS, after which the samples were collected and added to 1 mL of RIPA lysate containing protease inhibitors and phosphatase inhibitors and placed on ice for 30 min. Allowed to be after sufficient lysis, the supernatant was centrifuged and collected to determine the protein concentration using a nanodrop, followed by the addition of SDS sampling buffer and heating at 95 °C for 10 min. Samples were loaded and run on a gel block based on the determined sample concentration, and then electrotransferred onto a 0.45 μm PVDF membrane. […] After washing three times with TBST, proteins were visualised and scanned by enhanced chemiluminescence using the ChemiDoc XRS imaging system (Bio-Rad, Hercules, CA, USA).

[8] = system: wound tissue; assay: H&E staining of mouse wound sections; type: in vivo
Experimental: Sodium pentobarbital (2 %) was utilised for the anaesthetisation of mice by intraperitoneal injection (0.1 mL/20 g of mouse body weight). Subsequent to the induction of anaesthesia, the dorsal hair was removed using depilatory creams and electric scissors. Thereafter, circular full skin wounds of the same diameter were marked and created on the back of each mouse using circular stamps and red stencils. Mouse wounds were then covered and infiltrated daily with 20 μL of different concentrations of SC17-2 or 20 ng/mL of VEGF, and an equal volume of saline was used in the control group. Mice were anaesthetised every two days using isoflurane nebulisation followed by anaesthesia (concentration 2 %), after which they were placed under an optical camera to photograph the effect of wound area. After 13 days of treatment, mice were anaesthetised using isoflurane nebulisation followed by injection of an overdose of sodium pentobarbital to euthanise the mice (200 mg/kg). The wounds and their surrounding tissues were then excised for histopathological evaluation (Masson and H&E staining) and analysed by Enface immunofluorescence staining.

[9] = system: HaCaT cells; assay: In vitro scratch wound healing (migration) assay, HaCaT; type: cell-based, Human; details: SC17-2 concentrations exceeding 10 μg/mL, 16 h
[10] = increase in concentration of SC17-2

Sequence: SFMPLSIPIMCKMLSKC [SC17-2, peptide of the pleskein family from the skin transcriptome of the frog Nanorana parkeri, made by solid-phase synthesis]
- HUVEC migration [1]: notable enhancement
- antimicrobial (bacteriostatic) activity [2]: no bacteriostatic activity; also recorded: does not appear to have antimicrobial activity
- UVB damage repair compared with non-irradiated group ([3]; SC17-2 20 μg/mL vs group not irradiated): considerably less pronounced
- attenuation of UVB-induced damage ([3]; SC17-2 20 μg/mL, 24 h after 5 J/cm UVB, CCK-8, vs saline after irradiation): capable of effectively removing the damage caused by UVB radiation
- attenuation of cell injuries after UVB irradiation ([3]; SC17-2 20 and 5 μg/mL, 24 h, CCK-8, n = 3): could attenuate the cell injuries
- EGFR binding, dose dependence [4]: binds in a dose-dependent manner
- ISVs restored, relative to healthy zebrafish ([5]; SC17-2 20 μg/mL, 24 h, n = 6): 84.18%
- number of ISV, dose dependence ([5]; SC17-2 5, 10, 20 μg/mL, 24 h post-treatment): significant increase in the number of ISV in a dose-dependent manner
- antioxidant activity [6]: demonstrated antioxidant activity
- Smad2/3 phosphorylation [7]: significantly increased Smad2/3 phosphorylation
- inflammatory cell infiltration in wound tissue ([8]; day 13, SC17-2 no less than 10 μg/mL): significantly reduced the degree of inflammatory cell infiltration in the wound tissue
- epithelial tissue thickness [8, 10]: notable thickening of epithelial tissue
- granulation tissue formation [8, 10]: enhanced granulation tissue formation
- HaCaT migration [9]: notable enhancement
